Reference: the NIST ThermoML archive (doi:10.1021/je8003035)

Legend:
[1] = xn = mol fraction of the nth substance listed; details: 1800 kPa, Liquid, Vibrating tube method
[2] = wn = mass fraction of the nth substance listed; details: 1800 kPa, Liquid, Falling or rolling sphere viscometry
[3] = molar heat capacity at constant pressure; wn = mass fraction of the nth substance listed; details: 1800 kPa, Liquid, Small sample (50 mg) DSC

O=[N+]([O-])[O-].[Li+] [lithium nitrate] + N
Details | mass density [kg/m3] | molar heat capacity at constant pressure [J/K/mol] | viscosity [mPa·s]
[1], 293.15 K, x2 = 0.3501 | 1188.8 | – | –
[1], 293.15 K, x2 = 0.3988 | 1134.2 | – | –
[1], 293.15 K, x2 = 0.4499 | 1078.1 | – | –
[1], 293.15 K, x2 = 0.5 | 1030 | – | –
[1], 293.15 K, x2 = 0.55 | 983.8 | – | –
[1], 293.15 K, x2 = 0.5999 | 939 | – | –
[1], 293.15 K, x2 = 0.6505 | 896.8 | – | –
[1], 303.15 K, x2 = 0.3501 | 1181.2 | – | –
[1], 303.15 K, x2 = 0.3988 | 1126.6 | – | –
[1], 303.15 K, x2 = 0.4499 | 1070.3 | – | –
[1], 303.15 K, x2 = 0.5 | 1022.1 | – | –
[1], 303.15 K, x2 = 0.55 | 975.4 | – | –
[1], 303.15 K, x2 = 0.5999 | 929.8 | – | –
[1], 303.15 K, x2 = 0.6505 | 886.9 | – | –
[1], 313.15 K, x2 = 0.3501 | 1173.8 | – | –
[1], 313.15 K, x2 = 0.3988 | 1119 | – | –
[1], 313.15 K, x2 = 0.4499 | 1062.6 | – | –
[1], 313.15 K, x2 = 0.5 | 1014.1 | – | –
[1], 313.15 K, x2 = 0.55 | 966.8 | – | –
[1], 313.15 K, x2 = 0.5999 | 920.6 | – | –
[1], 313.15 K, x2 = 0.6505 | 876.7 | – | –
[1], 323.15 K, x2 = 0.3501 | 1166.6 | – | –
[1], 323.15 K, x2 = 0.3988 | 1111.5 | – | –
[1], 323.15 K, x2 = 0.4499 | 1055.1 | – | –
[1], 323.15 K, x2 = 0.5 | 1006.1 | – | –
[1], 323.15 K, x2 = 0.55 | 958.1 | – | –
[1], 323.15 K, x2 = 0.5999 | 911.2 | – | –
[1], 323.15 K, x2 = 0.6505 | 866.6 | – | –
[1], 333.15 K, x2 = 0.3501 | 1159.7 | – | –
[1], 333.15 K, x2 = 0.3988 | 1104.1 | – | –
[1], 333.15 K, x2 = 0.4499 | 1047.5 | – | –
[1], 333.15 K, x2 = 0.5 | 998 | – | –
[1], 333.15 K, x2 = 0.55 | 949.4 | – | –
[1], 333.15 K, x2 = 0.5999 | 901.6 | – | –
[1], 343.15 K, x2 = 0.3501 | 1153.1 | – | –
[1], 343.15 K, x2 = 0.3988 | 1096.9 | – | –
[1], 343.15 K, x2 = 0.4499 | 1040 | – | –
[1], 343.15 K, x2 = 0.5 | 990.1 | – | –
[1], 343.15 K, x2 = 0.55 | 940.4 | – | –
[1], 353.15 K, x2 = 0.3501 | 1146.9 | – | –
[1], 353.15 K, x2 = 0.3988 | 1090.2 | – | –
[1], 353.15 K, x2 = 0.4499 | 1032.8 | – | –
[1], 353.15 K, x2 = 0.5 | 982.1 | – | –
[2], 293.2 K, w2 = 0.4 | – | – | 22.7
[2], 293.2 K, w2 = 0.4997 | – | – | 7.1
[2], 298.2 K, w2 = 0.4 | – | – | 18.7
[2], 298.2 K, w2 = 0.4997 | – | – | 6.1
[2], 303.2 K, w2 = 0.4 | – | – | 15.5
[2], 303.2 K, w2 = 0.4997 | – | – | 5.3
[2], 308.2 K, w2 = 0.4 | – | – | 13
[2], 308.2 K, w2 = 0.4997 | – | – | 4.7
[2], 313.2 K, w2 = 0.4 | – | – | 11
[2], 313.2 K, w2 = 0.4997 | – | – | 4.1
[2], 318.2 K, w2 = 0.4 | – | – | 9.3
[2], 318.2 K, w2 = 0.4997 | – | – | 3.6
[2], 323.2 K, w2 = 0.3 | – | – | 18.6
[2], 323.2 K, w2 = 0.4 | – | – | 8
[2], 323.2 K, w2 = 0.4997 | – | – | 3.3
[2], 328.1 K, w2 = 0.4997 | – | – | 2.9
[2], 328.2 K, w2 = 0.3 | – | – | 15.9
[2], 328.2 K, w2 = 0.4 | – | – | 6.9
[2], 333.1 K, w2 = 0.4997 | – | – | 2.6
[2], 333.2 K, w2 = 0.3 | – | – | 13.8
[2], 333.2 K, w2 = 0.4 | – | – | 6.1
[2], 338 K, w2 = 0.4997 | – | – | 2.4
[2], 338.1 K, w2 = 0.3 | – | – | 11.9
[2], 338.1 K, w2 = 0.4 | – | – | 5.4
[2], 343 K, w2 = 0.4997 | – | – | 2.2
[2], 343.1 K, w2 = 0.3 | – | – | 10.9
[2], 343.1 K, w2 = 0.4 | – | – | 4.8
[2], 348.1 K, w2 = 0.3 | – | – | 9
[2], 348.2 K, w2 = 0.4 | – | – | 4.3
[2], 353.1 K, w2 = 0.4 | – | – | 3.8
[2], 353.2 K, w2 = 0.3 | – | – | 7.9
[3], 312.65 K, w2 = 0.5 | – | 85.88 | –
[3], 312.67 K, w2 = 0.3501 | – | 84.48 | –
[3], 312.67 K, w2 = 0.4003 | – | 84.65 | –
[3], 312.67 K, w2 = 0.4499 | – | 85.21 | –
[3], 312.67 K, w2 = 0.5497 | – | 84.75 | –
[3], 322.56 K, w2 = 0.5 | – | 86.67 | –
[3], 322.57 K, w2 = 0.3501 | – | 85.61 | –
[3], 322.58 K, w2 = 0.4003 | – | 85.8 | –
[3], 322.58 K, w2 = 0.4499 | – | 86.2 | –
[3], 322.58 K, w2 = 0.5497 | – | 85.55 | –
[3], 332.46 K, w2 = 0.5 | – | 87.54 | –
[3], 332.48 K, w2 = 0.3501 | – | 86.65 | –
[3], 332.48 K, w2 = 0.4499 | – | 87.22 | –
[3], 332.48 K, w2 = 0.5497 | – | 86.09 | –
[3], 332.49 K, w2 = 0.4003 | – | 86.7 | –
[3], 342.37 K, w2 = 0.5 | – | 88.33 | –
[3], 342.38 K, w2 = 0.3501 | – | 87.52 | –
[3], 342.38 K, w2 = 0.5497 | – | 86.97 | –
[3], 342.39 K, w2 = 0.4003 | – | 87.51 | –
[3], 342.39 K, w2 = 0.4499 | – | 88.09 | –
[3], 352.29 K, w2 = 0.3501 | – | 88.22 | –
[3], 352.29 K, w2 = 0.4003 | – | 88.07 | –
[3], 352.31 K, w2 = 0.4499 | – | 88.59 | –
